Test results taken from US12440500B2, “Phytoecdysones and the derivatives thereof for use in the treatment of neuromuscular diseases” (BIOPHYTIS, priority 2019, dated 2025).

Test system: slow, intermediate and fast motor neurons of SMA mice
Assay: Motor neuron sub-populations (ChAT/ERRβ/MMP9 co-labeling, lumbar spinal cord)
Assay type: in vivo, mouse
Procedure: In a manner complementary to the quantitative analysis of the number of motor neurons and of the size of their soma as well as the qualitative study concerning their location (medial or lateral in the ventral spinal cord), we studied the impact of the treatment by BIO101 on the protection of the sub-populations of motor neurons (slow motor neurons, intermediate motor neurons and fast motor neurons). This qualitative analysis of the sub-populations of motor neurons was carried out on thick cross-sections of the lumbar region of the spinal cord (L1-L5) of control or SMA mice treated or not with BIO101 by immunofluorescent labeling with Choline Acetyltransferase such as was described hereinabove (Biondi et al., 2008; Branchu et al., 2013) as well as an analysis of the type of motor neurons by immunofluorescence co-labeling with Estrogen-related receptor-β (ERRβ), a specific marker of the slow motor neurons, or with Matrix metallopeptidase 9 (MMP9), a specific marker of the fast motor neurons.
The anesthetized mice underwent an intracardiac infusion with PBS. The spinal cords of the mice were taken, fixed then rinsed. The lumbar region of the spinal cords (L1-L5) was coated in a 4% solution of agarose. 50 μm cross-sections were made using a vibratome over the entire length of the sample. One section every 5 sections of spinal cord was then used for the immunohistochemical analyses. […]

Compound: CC(C)(O)CC[C@@H](O)[C@](C)(O)[C@H]1CC[C@@]2(O)C3=CC(=O)[C@@H]4C[C@@H](O)[C@@H](O)C[C@]4(C)[C@H]3CC[C@]12C [BIO101, 20-hydroxyecdysone]
- number of fast motor neurons (ChAT+MMP9+) (SMA mice treated P0 to P11 (SMA vehicle 11), p<0.05): 14
- number of slow motor neurons (ChAT+ERRβ+) (between healthy vehicle, SMA vehicle and SMA treated groups): does not vary significantly
